Reference: US4542137A, “Alkylaminodesoxy-1.4;3.6-dianhydrohexitol nitrates substituted by purine bases and pharmaceutical compositions” (priority 1980, dated 1985)

System: mongrel dogs
Experiment: circulatory pharmacological effectiveness on narcotised dogs, intravenous
Type: in vivo, dog
Settings: dog i.v. ISDN/9c 1, 1d 0.5 mg/kg

Question: How did the “APdiast: diastolic aorta pressure” value (2 min) turn out when `CN(CCCn1cnc2c1c(=O)n(C)c(=O)n2C)[C@H]1CO[C@H]2[C@@H]1OC[C@@H]2O[N+](=O)[O-]` [Example 9c, 5-[N-Methyl-N-(3-theophyllin-7-ylpropyl)-amino]-5-desoxy-1.4;3.6-dianhydro-L-iditol 2-nitrate] was run?
Answer: 58.1 mm.Hg

Question: And the “APsyst: systolic aorta pressure” value (2 min)?
Answer: 105.0 mm.Hg

Question: What about the “BFFem: blood flow in the A. femoralis referred to 20 kg body weight” value (from here on “BFFem: blood flow”) (2 min) of the same compound?
Answer: 34.6 mL/min

Question: What about the “HF: heart frequency” value (2 min) of the same compound?
Answer: 163.2

Question: And the “HLL: heart capacity left, referred to 20 kg body weight” value (from here on “HLL: heart capacity left, referred”) (2 min)?
Answer: 0.51 W

Question: What about the “HLR: heart capacity right, referred to 20 kg body weight” value (shortened to “HLR: heart capacity right, referred”) (2 min) of the same compound?
Answer: 67.6 mW

Question: What about the “HZV: heart minute volume, referred to 20 kg body weight” value (“HZV: heart minute volume, referred” for short) (2 min) of the same compound?
Answer: 3.15 L/min

Question: What about the “LVEDP: end diastolic pressure in the left ventricle” value (shortened to “LVEDP: end diastolic pressure”) (2 min) of the same compound?
Answer: 3.60 mm.Hg

Question: And the “SV: beat volume, referred to 20 kg body weight” value (“SV: beat volume, referred” below) (2 min)?
Answer: 20.0 mL

Question: What about the “WAP: pulmonalis resistance, referred to 20 kg body weight” value (“WAP: pulmonalis resistance, referred” for short) (2 min) of the same compound?
Answer: 0.30 U

Question: What about the “WFem: moralis resistance, referred to 20 kg body weight” value (“WFem: moralis resistance, referred” for short) (2 min) of the same compound?
Answer: 0.33 KU

Question: And the “WTP: total peripheral resistance, referred to 20 kg body weight” value (shortened to “WTP: total peripheral resistance”) (2 min)?
Answer: 3.07 U

Question: What about the “dp/dt: rate of pressure increase in the left ventricle” value (“dp/dt: rate of pressure increase” below) (2 min) of the same compound?
Answer: 3045.0 mm.Hg/sec

Question: What about the “APdiast: diastolic aorta pressure” value (5 min) of the same compound?
Answer: 79.7 mm.Hg

Question: And the “APsyst: systolic aorta pressure” value (5 min)?
Answer: 126.6 mm.Hg

Question: What about the “BFFem: blood flow” value (5 min) of the same compound?
Answer: 39.1 mL/min

Question: And the “HF: heart frequency” value (5 min)?
Answer: 129.7

Question: What about the “HLL: heart capacity left, referred” value (5 min) of the same compound?
Answer: 0.56 W

Question: And the “HLR: heart capacity right, referred” value (5 min)?
Answer: 66.9 mW

Question: What about the “HZV: heart minute volume, referred” value (5 min) of the same compound?
Answer: 2.73 L/min

Question: And the “LVEDP: end diastolic pressure” value (5 min)?
Answer: 4.64 mm.Hg

Question: And the “SV: beat volume, referred” value (5 min)?
Answer: 21.1 mL

Question: And the “WAP: pulmonalis resistance, referred” value (5 min)?
Answer: 0.33 U

Question: What about the “WFem: moralis resistance, referred” value (5 min) of the same compound?
Answer: 0.37 KU

Question: What about the “dp/dt: rate of pressure increase” value (5 min) of the same compound?
Answer: 2287.5 mm.Hg/sec

Question: And the “APdiast: diastolic aorta pressure” value (7 min)?
Answer: 82.5 mm.Hg

Question: And the “APsyst: systolic aorta pressure” value (7 min)?
Answer: 129.4 mm.Hg

Question: And the “BFFem: blood flow” value (7 min)?
Answer: 42.5 mL/min

Question: What about the “HF: heart frequency” value (7 min) of the same compound?
Answer: 123.2

Question: What about the “HLL: heart capacity left, referred” value (7 min) of the same compound?
Answer: 0.58 W

Question: What about the “HLR: heart capacity right, referred” value (7 min) of the same compound?
Answer: 64.2 mW

Question: And the “HZV: heart minute volume, referred” value (7 min)?
Answer: 2.75 L/min

Question: And the “LVEDP: end diastolic pressure” value (7 min)?
Answer: 4.92 mm.Hg

Question: What about the “SV: beat volume, referred” value (7 min) of the same compound?
Answer: 22.4 mL

Question: What about the “WFem: moralis resistance, referred” value (7 min) of the same compound?
Answer: 0.34 KU

Question: What about the “WTP: total peripheral resistance” value (7 min) of the same compound?
Answer: 4.77 U

Question: What about the “dp/dt: rate of pressure increase” value (7 min) of the same compound?
Answer: 2325.0 mm.Hg/sec

Question: And the “APdiast: diastolic aorta pressure” value (10 min)?
Answer: 81.6 mm.Hg

Question: What about the “APsyst: systolic aorta pressure” value (10 min) of the same compound?
Answer: 127.5 mm.Hg

Question: And the “HF: heart frequency” value (10 min)?
Answer: 120.5

Question: What about the “HLL: heart capacity left, referred” value (10 min) of the same compound?
Answer: 0.57 W

Question: And the “HLR: heart capacity right, referred” value (10 min)?
Answer: 68.8 mW

Question: And the “HZV: heart minute volume, referred” value (10 min)?
Answer: 2.76 L/min

Question: And the “LVEDP: end diastolic pressure” value (10 min)?
Answer: 4.92 mm.Hg

Question: And the “SV: beat volume, referred” value (10 min)?
Answer: 23.0 mL

Question: What about the “WAP: pulmonalis resistance, referred” value (10 min) of the same compound?
Answer: 0.32 U

Question: What about the “WFem: moralis resistance, referred” value (10 min) of the same compound?
Answer: 0.32 KU

Question: And the “WTP: total peripheral resistance” value (10 min)?
Answer: 4.68 U

Question: What about the “APdiast: diastolic aorta pressure” value (15 min) of the same compound?
Answer: 81.6 mm.Hg

Question: And the “APsyst: systolic aorta pressure” value (15 min)?
Answer: 128.4 mm.Hg

Question: And the “BFFem: blood flow” value (15 min)?
Answer: 43.4 mL/min

Question: And the “HF: heart frequency” value (15 min)?
Answer: 115.2

Question: What about the “HLL: heart capacity left, referred” value (15 min) of the same compound?
Answer: 0.57 W

Question: What about the “HLR: heart capacity right, referred” value (15 min) of the same compound?
Answer: 63.6 mW

Question: What about the “HZV: heart minute volume, referred” value (15 min) of the same compound?
Answer: 2.77 L/min

Question: What about the “LVEDP: end diastolic pressure” value (15 min) of the same compound?
Answer: 5.20 mm.Hg

Question: What about the “SV: beat volume, referred” value (15 min) of the same compound?
Answer: 24.2 mL

Question: And the “WAP: pulmonalis resistance, referred” value (15 min)?
Answer: 0.30 U

Question: And the “WFem: moralis resistance, referred” value (15 min)?
Answer: 0.31 KU

Question: And the “WTP: total peripheral resistance” value (15 min)?
Answer: 4.65 U

Question: And the “dp/dt: rate of pressure increase” value (15 min)?
Answer: 2250.0 mm.Hg/sec

Question: What about the “APdiast: diastolic aorta pressure” value (20 min) of the same compound?
Answer: 82.5 mm.Hg

Question: What about the “APsyst: systolic aorta pressure” value (20 min) of the same compound?
Answer: 128.4 mm.Hg

Question: And the “BFFem: blood flow” value (20 min)?
Answer: 44.2 mL/min

Question: And the “HF: heart frequency” value (20 min)?
Answer: 114.5

Question: What about the “HLL: heart capacity left, referred” value (20 min) of the same compound?
Answer: 0.55 W

Question: And the “HLR: heart capacity right, referred” value (20 min)?
Answer: 63.1 mW

Question: And the “HZV: heart minute volume, referred” value (20 min)?
Answer: 2.65 L/min

Question: What about the “LVEDP: end diastolic pressure” value (20 min) of the same compound?
Answer: 5.48 mm.Hg

Question: What about the “SV: beat volume, referred” value (20 min) of the same compound?
Answer: 23.3 mL

Question: What about the “WAP: pulmonalis resistance, referred” value (20 min) of the same compound?
Answer: 0.30 U

Question: What about the “WFem: moralis resistance, referred” value (20 min) of the same compound?
Answer: 0.31 KU

Question: What about the “WTP: total peripheral resistance” value (20 min) of the same compound?
Answer: 4.90 U

Question: What about the “dp/dt: rate of pressure increase” value (20 min) of the same compound?
Answer: 2221.9 mm.Hg/sec

Question: And the “APdiast: diastolic aorta pressure” value (25 min)?
Answer: 83.4 mm.Hg

Question: And the “APsyst: systolic aorta pressure” value (25 min)?
Answer: 131.2 mm.Hg

Question: And the “BFFem: blood flow” value (25 min)?
Answer: 41.3 mL/min

Question: What about the “HLL: heart capacity left, referred” value (25 min) of the same compound?
Answer: 0.56 W

Question: What about the “HLR: heart capacity right, referred” value (25 min) of the same compound?
Answer: 60.5 mW

Question: What about the “HZV: heart minute volume, referred” value (25 min) of the same compound?
Answer: 2.65 L/min

Question: And the “LVEDP: end diastolic pressure” value (25 min)?
Answer: 5.62 mm.Hg

Question: And the “SV: beat volume, referred” value (25 min)?
Answer: 23.7 mL

Question: And the “WAP: pulmonalis resistance, referred” value (25 min)?
Answer: 0.27 U

Question: And the “WFem: moralis resistance, referred” value (25 min)?
Answer: 0.33 KU

Question: What about the “WTP: total peripheral resistance” value (25 min) of the same compound?
Answer: 5.00 U

Question: What about the “dp/dt: rate of pressure increase” value (25 min) of the same compound?
Answer: 2221.9 mm.Hg/sec

Question: What about the “APdiast: diastolic aorta pressure” value (30 min) of the same compound?
Answer: 81.6 mm.Hg

Question: What about the “APsyst: systolic aorta pressure” value (30 min) of the same compound?
Answer: 134.1 mm.Hg

Question: What about the “BFFem: blood flow” value (30 min) of the same compound?
Answer: 44.2 mL/min

Question: And the “HF: heart frequency” value (30 min)?
Answer: 111.5

Question: What about the “HLL: heart capacity left, referred” value (30 min) of the same compound?
Answer: 0.57 W

Question: What about the “HLR: heart capacity right, referred” value (30 min) of the same compound?
Answer: 60.5 mW

Question: What about the “HZV: heart minute volume, referred” value (30 min) of the same compound?
Answer: 2.68 L/min

Question: And the “LVEDP: end diastolic pressure” value (30 min)?
Answer: 5.62 mm.Hg

Question: And the “SV: beat volume, referred” value (30 min)?
Answer: 24.2 mL

Question: And the “WFem: moralis resistance, referred” value (30 min)?
Answer: 0.31 KU

Question: And the “WTP: total peripheral resistance” value (30 min)?
Answer: 4.87 U

Question: And the “dp/dt: rate of pressure increase” value (30 min)?
Answer: 2221.9 mm.Hg/sec

Question: What about the “APdiast: diastolic aorta pressure” value (40 min) of the same compound?
Answer: 86.2 mm.Hg

Question: What about the “APsyst: systolic aorta pressure” value (40 min) of the same compound?
Answer: 136.9 mm.Hg
